According to the NIST ThermoML archive (doi:10.1021/acs.jced.7b00024):

Assay: mean ionic activity coefficient (dimensionless); mn = molality of the nth substance listed, in mol/kg
Details: 298.15 K, 100 kPa, Liquid, Potentiometry

[Cl-].[Cs+] [cesium chloride] + O
Details | mean ionic activity coefficient
m1 = 0.0085 | 0.905
m1 = 0.01 | 0.898
m1 = 0.028 | 0.843
m1 = 0.0297 | 0.84
m1 = 0.0574 | 0.794
m1 = 0.0706 | 0.778
m1 = 0.0969 | 0.753
m1 = 0.1497 | 0.715
m1 = 0.1937 | 0.692
m1 = 0.2985 | 0.652
m1 = 0.3873 | 0.628
m1 = 0.5981 | 0.588
m1 = 0.6802 | 0.577
m1 = 0.9033 | 0.552
m1 = 1.073 | 0.538
m1 = 1.504 | 0.513
m1 = 1.56 | 0.51
m1 = 2.106 | 0.492
m1 = 2.152 | 0.491
m1 = 2.947 | 0.477
m1 = 3.008 | 0.476
m1 = 3.944 | 0.472
m1 = 4.002 | 0.471
